Laboratory results as given in ChEMBL document CHEMBL5696439 (Cancer Res, 2010).
The source made the active and inactive calls. The calls are words filed in the database; no cut-off is given here.

Key:
[1] = molecular target: Ephrin type-B receptor 1 (Homo sapiens) (UniProt P54762); test: Inhibition of recombinant human GST-tagged EPHB1 (613-881 residues) expressed in insect cells at 2 uM using Tyr 02 as substrate measured after 1 hr by Z'-LYTE assay relative to control; conditions: Insect cell
[2] = molecular target: Serine/threonine-protein kinase TBK1 (Homo sapiens) (UniProt Q9UHD2); test: Inhibition of recombinant human full length GST-tagged TBK1 expressed in insect cells at 2 uM using Ser/Thr 05 as substrate measured after 1 hr by Z'-LYTE assay relative to control; conditions: Insect cell
A549 = test: Antitumor activity against human A549 cells xenografted in female nude mouse model assessed as suppression in tumor growth at 50 mg/kg, po qd administered as 5 days on/2 days off regimen for 4 cycles relative to control; type: functional; conditions: time 28 day
[3] = molecular target: Ephrin type-B receptor 3 (Homo sapiens) (UniProt P54753); test: Inhibition of recombinant human GST-tagged EPHB3 (623-907 residues) expressed in insect cells at 2 uM using Tyr 02 as substrate measured after 1 hr by Z'-LYTE assay relative to control; conditions: Insect cell
[4] = molecular target: Calcium/calmodulin-dependent protein kinase type IV (Homo sapiens) (UniProt Q16566); test: Inhibition of recombinant human full-length GST-tagged CAMK4 expressed in E. coli at 2 uM using Ser/Thr 13 as substrate measured after 1 hr by Z'-LYTE assay relative to control
Chain of Calcium/calmodulin-dependent protein kinase type IV (Homo sapiens) (Q16566 whole entry): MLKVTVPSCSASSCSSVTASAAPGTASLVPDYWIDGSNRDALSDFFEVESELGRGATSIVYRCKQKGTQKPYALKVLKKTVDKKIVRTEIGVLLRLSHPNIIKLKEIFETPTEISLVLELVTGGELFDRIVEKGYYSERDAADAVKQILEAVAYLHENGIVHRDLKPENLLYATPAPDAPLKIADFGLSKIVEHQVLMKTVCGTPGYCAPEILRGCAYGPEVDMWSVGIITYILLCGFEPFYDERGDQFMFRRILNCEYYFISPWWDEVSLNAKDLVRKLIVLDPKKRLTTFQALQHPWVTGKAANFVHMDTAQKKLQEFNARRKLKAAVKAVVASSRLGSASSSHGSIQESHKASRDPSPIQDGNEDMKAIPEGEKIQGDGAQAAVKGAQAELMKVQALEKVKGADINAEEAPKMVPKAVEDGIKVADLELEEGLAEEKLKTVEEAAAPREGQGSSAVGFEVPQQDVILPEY

[5] = molecular target: Tyrosine-protein kinase Lck (Homo sapiens) (UniProt P06239); test: Inhibition of recombinant human full-length His-tagged LCK expressed in insect cells at 2 uM using Tyr 02 as substrate measured after 1 hr by Z'-LYTE assay relative to control; conditions: Insect cell
[6] = molecular target: Tyrosine-protein kinase receptor TYRO3 (Homo sapiens) (UniProt Q06418); test: Inhibition of recombinant human GST-tagged TYRO3 (451-890 residues) expressed in insect cells at 2 uM using […] as substrate measured after 1 hr by Z'-LYTE assay relative to control; conditions: Insect cell
Chain of Tyrosine-protein kinase receptor TYRO3 (Homo sapiens) (Q06418 whole entry, the tested form may be a part): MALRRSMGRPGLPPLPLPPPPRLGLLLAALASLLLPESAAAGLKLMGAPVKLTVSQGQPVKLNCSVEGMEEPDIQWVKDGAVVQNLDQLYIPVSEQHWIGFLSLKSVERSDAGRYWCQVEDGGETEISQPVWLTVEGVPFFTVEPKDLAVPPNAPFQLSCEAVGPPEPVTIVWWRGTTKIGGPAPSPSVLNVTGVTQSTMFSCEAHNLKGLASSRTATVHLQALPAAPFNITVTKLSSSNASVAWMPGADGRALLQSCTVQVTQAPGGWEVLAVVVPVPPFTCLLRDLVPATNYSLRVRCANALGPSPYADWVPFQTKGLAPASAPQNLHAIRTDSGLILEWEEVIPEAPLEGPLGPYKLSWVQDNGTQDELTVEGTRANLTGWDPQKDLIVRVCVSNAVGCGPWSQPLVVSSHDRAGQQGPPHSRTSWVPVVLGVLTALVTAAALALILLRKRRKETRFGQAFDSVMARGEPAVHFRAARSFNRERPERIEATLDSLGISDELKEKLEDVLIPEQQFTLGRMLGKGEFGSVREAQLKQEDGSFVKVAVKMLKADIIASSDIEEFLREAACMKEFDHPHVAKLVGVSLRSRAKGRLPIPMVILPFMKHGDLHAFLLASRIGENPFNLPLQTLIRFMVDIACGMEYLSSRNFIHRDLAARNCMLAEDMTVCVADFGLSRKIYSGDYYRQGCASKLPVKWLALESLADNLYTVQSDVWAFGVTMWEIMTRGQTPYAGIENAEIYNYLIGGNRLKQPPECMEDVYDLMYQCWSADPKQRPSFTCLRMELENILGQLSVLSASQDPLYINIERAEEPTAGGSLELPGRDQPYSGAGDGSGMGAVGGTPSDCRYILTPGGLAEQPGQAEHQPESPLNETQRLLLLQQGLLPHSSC

[7] = molecular target: Rho-associated protein kinase 1 (Homo sapiens) (UniProt Q13464); test: Inhibition of recombinant human GST-tagged ROCK1 (1-535 residues) expressed in insect cells at 2 uM using Ser/Thr 07 as substrate measured after 1 hr by Z'-LYTE assay relative to control; conditions: Insect cell
[8] = molecular target: Dual specificity tyrosine-phosphorylation-regulated kinase 3 (Homo sapiens) (UniProt O43781); test: Inhibition of recombinant human full-length GST-tagged DYRK3 expressed in insect cells at 2 uM using Ser/Thr 09 as substrate measured after 1 hr by Z'-LYTE assay relative to control; conditions: Insect cell
[9] = molecular target: AMP-activated protein kinase (AMPK) alpha-1/beta-1/gamma-1 (Homo sapiens) (UniProt P54619+Q9Y478+Q13131); test: Inhibition of recombinant human full-length GST/His-tagged AMPKalpha1/beta1/gamma1 expressed in insect cells at 2 uM using Ser/Thr 23 as substrate measured after 1 hr by Z'-LYTE assay relative to control; conditions: Insect cell
Chain of AMP-activated protein kinase (AMPK) alpha-1/beta-1/gamma-1 (Homo sapiens) (P54619 whole entry): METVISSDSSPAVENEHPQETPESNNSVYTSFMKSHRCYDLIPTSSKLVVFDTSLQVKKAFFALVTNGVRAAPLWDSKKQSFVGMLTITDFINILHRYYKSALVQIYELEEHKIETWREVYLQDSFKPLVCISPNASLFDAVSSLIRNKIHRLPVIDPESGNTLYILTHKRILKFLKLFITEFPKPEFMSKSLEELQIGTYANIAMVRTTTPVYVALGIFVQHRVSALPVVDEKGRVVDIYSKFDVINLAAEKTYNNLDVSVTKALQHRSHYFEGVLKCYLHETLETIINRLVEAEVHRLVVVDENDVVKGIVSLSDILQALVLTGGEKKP
Chain of AMP-activated protein kinase (AMPK) alpha-1/beta-1/gamma-1 (Homo sapiens) (Q13131 whole entry partner): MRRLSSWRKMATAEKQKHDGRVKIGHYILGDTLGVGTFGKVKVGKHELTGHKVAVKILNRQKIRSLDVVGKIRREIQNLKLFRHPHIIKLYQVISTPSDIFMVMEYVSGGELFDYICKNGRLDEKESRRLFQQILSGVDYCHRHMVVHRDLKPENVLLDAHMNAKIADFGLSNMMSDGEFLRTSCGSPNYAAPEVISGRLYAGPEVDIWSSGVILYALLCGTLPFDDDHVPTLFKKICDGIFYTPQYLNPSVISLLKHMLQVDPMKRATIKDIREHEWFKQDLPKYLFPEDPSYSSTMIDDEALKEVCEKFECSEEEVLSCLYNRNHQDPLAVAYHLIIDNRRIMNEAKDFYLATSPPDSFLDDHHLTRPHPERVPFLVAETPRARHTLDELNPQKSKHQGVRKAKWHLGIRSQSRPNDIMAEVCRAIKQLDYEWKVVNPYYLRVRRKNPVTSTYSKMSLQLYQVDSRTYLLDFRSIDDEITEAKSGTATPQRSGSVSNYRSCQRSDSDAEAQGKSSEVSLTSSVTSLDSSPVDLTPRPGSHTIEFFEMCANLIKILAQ
Chain of AMP-activated protein kinase (AMPK) alpha-1/beta-1/gamma-1 (Homo sapiens) (Q9Y478 2-270 partner limits assumed): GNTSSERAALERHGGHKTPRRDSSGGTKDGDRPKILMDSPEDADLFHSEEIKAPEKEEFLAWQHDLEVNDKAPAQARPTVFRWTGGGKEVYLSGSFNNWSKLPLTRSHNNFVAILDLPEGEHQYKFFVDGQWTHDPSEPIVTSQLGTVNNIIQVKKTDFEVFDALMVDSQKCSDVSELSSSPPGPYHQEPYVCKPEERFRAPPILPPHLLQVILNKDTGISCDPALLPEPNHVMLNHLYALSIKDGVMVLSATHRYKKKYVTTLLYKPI

[10] = molecular target: Protein kinase C alpha type (Homo sapiens) (UniProt P17252); test: Inhibition of recombinant human full length GST-tagged PRKCA expressed in baculovirus expression system at 2 uM using Ser/Thr 07 as substrate measured after 1 hr by Z'-LYTE assay relative to control
[11] = test system: Hepatocyte growth factor receptor (Homo sapiens), P08581 [M1250T]; test: Inhibition of recombinant human His-tagged MET M1250T mutant (956-1390 residues) expressed in insect cells at 2 uM using Tyr 06 as substrate measured after 1 hr by Z'-LYTE assay relative to control; conditions: Insect cell
[12] = molecular target: Mitogen-activated protein kinase 13 (Homo sapiens) (UniProt O15264); test: Inhibition of recombinant human full length His-tagged MAPK13 expressed in baculovirus expression system at 2 uM using Ser/Thr 03 as substrate measured after 1 hr by Z'-LYTE assay relative to control
[13] = molecular target: Ephrin type-A receptor 8 (Homo sapiens) (UniProt P29322); test: Inhibition of recombinant human GST-tagged EPHA8 (565-1005 residues) expressed in insect cells at 2 uM using Tyr 02 as substrate measured after 1 hr by Z'-LYTE assay relative to control; conditions: Insect cell
[14] = molecular target: Tyrosine-protein kinase JAK2 (Homo sapiens) (UniProt O60674); test: Inhibition of recombinant human GST-tagged JAK2 JH1 JH2 domains (532-1132 residues) expressed in insect cells at 2 uM using Tyr 06 as substrate measured after 1 hr by Z'-LYTE assay relative to control; conditions: Insect cell
MDA-MB-468 = test: Antiproliferative activity against human MDA-MB-468 cells assessed as cell growth inhibition incubated for 24 hrs by MTS assay; type: functional, cell-based; conditions: MDA-MB-468, 24 h
mTORC2 (Homo sapiens) [15] = molecular target: T1, mTORC2 (Homo sapiens) (UniProt P42345+Q6R327+Q9BVC4+Q9BPZ7); conditions: U-87 MG, dose 0.025-2 µmol/L, time 6.0 hrs
A498 [16] = test: cells; conditions: Homo sapiens, A498, 72 h
Description: Antiproliferative activity against human A498 cells assessed as cell growth inhibition incubated for 3 days by MTS assay

[17] = molecular target: Ribosomal protein S6 kinase beta-1 (Homo sapiens) (UniProt P23443); test: Inhibition of recombinant human GST-tagged RPS6KB1 (1-421 residues) expressed in insect cells at 2 uM using Ser/Thr 07 as substrate measured after 1 hr by Z'-LYTE assay relative to control; conditions: Insect cell
Chain of Ribosomal protein S6 kinase beta-1 (Homo sapiens) (P23443 whole entry, looked up, the tested form may be a part): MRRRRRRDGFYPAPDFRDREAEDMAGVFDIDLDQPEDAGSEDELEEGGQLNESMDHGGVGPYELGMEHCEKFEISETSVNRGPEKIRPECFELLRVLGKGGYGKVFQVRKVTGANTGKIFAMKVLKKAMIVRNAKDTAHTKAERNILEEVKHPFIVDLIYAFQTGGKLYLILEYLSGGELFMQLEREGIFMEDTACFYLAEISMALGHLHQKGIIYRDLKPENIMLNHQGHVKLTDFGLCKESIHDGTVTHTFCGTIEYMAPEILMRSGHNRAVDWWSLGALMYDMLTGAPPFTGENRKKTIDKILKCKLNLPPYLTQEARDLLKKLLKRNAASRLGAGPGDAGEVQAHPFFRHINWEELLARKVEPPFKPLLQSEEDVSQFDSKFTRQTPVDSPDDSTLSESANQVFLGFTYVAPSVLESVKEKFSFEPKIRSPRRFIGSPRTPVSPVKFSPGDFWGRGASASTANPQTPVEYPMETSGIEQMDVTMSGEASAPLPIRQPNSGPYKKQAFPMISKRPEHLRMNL

MDA-MB-361 [18] = test: Antitumor activity against human MDA-MB-361 cells assessed as block the accumulation of HIF-1alpha in low oxygen at 0.3 micromol/L incubated for 24 hrs by immunoblot analysis; type: functional, cell-based; conditions: dose 0.3 µmol/L
MDA-MB-361 [19] = test: Antiproliferative activity against human MDA-MB-361 cells assessed as cell growth inhibition incubated for 24 hrs by MTS assay; type: functional, cell-based; conditions: MDA-MB-361, 24 h
A498 [20] = test: cells; conditions: Homo sapiens, A498, 48 h
Description: Antiproliferative activity against human A498 cells assessed as cell growth inhibition incubated for 2 days by MTS assay

[21] = molecular target: Tyrosine-protein kinase Fgr (Homo sapiens) (UniProt P09769); test: Inhibition of recombinant human full-length His-tagged FGR expressed in insect cells at 2 uM using Tyr 02 as substrate measured after 1 hr by Z'-LYTE assay relative to control; conditions: Insect cell
[22] = molecular target: Mitogen-activated protein kinase kinase kinase kinase 5 (Homo sapiens) (UniProt Q9Y4K4); test: Inhibition of recombinant human full length GST-tagged MAP4K5 expressed in insect cells at 2 uM using Ser/Thr 07 as substrate measured after 1 hr by Z'-LYTE assay relative to control; conditions: Insect cell
Chain of Mitogen-activated protein kinase kinase kinase kinase 5 (Homo sapiens) (Q9Y4K4 whole entry, looked up): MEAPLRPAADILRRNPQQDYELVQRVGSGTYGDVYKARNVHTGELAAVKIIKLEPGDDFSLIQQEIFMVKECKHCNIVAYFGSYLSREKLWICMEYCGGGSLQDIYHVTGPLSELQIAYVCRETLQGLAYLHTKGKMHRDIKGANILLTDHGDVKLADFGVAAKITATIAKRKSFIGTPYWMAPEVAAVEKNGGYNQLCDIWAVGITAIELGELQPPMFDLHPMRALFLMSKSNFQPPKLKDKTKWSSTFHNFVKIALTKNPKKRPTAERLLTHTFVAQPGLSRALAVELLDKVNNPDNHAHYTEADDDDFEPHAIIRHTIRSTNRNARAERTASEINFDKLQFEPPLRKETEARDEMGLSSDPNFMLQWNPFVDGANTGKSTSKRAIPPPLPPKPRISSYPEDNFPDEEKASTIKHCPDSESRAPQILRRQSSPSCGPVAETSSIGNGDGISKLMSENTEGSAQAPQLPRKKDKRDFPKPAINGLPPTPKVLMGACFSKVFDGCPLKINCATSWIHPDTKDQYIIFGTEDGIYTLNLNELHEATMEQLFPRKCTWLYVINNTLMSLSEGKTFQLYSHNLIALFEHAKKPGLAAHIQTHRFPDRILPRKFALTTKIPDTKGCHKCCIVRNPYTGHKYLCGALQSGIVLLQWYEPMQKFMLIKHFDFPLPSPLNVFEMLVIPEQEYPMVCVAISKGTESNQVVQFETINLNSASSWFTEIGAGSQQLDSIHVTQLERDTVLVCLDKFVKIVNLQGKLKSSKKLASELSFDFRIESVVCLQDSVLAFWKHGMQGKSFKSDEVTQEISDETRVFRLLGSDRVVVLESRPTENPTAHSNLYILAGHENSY

mTORC2 (Homo sapiens) [23] = molecular target: T1, mTORC2 (Homo sapiens); conditions: U-87 MG, dose 0.025-2 µmol/L, time 6.0 hrs; remark: listed apart in the source
[24] = molecular target: Aurora kinase B (Homo sapiens) (UniProt Q96GD4); test: Inhibition of recombinant human full-length His-tagged AURKB expressed in insect cells at 2 uM using Ser/Thr 01 as substrate measured after 1 hr by Z'-LYTE assay relative to control; conditions: Insect cell
Chain of Aurora kinase B (Homo sapiens) (Q96GD4 whole entry): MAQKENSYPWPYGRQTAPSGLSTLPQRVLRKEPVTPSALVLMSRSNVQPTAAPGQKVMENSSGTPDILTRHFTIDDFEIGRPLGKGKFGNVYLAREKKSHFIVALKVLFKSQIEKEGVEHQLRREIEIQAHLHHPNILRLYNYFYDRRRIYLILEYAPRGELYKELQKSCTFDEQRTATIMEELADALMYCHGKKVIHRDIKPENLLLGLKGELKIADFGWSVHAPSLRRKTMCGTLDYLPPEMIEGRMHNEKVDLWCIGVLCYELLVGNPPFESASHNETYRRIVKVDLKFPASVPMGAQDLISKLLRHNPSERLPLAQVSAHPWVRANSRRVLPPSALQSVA

CNC(=O)Nc1ccc(-c2nc(N3CC4CCC(C3)O4)c3cnn(C4CCC5(CC4)OCCO5)c3n2)cc1
inhibition [1]: 2% | inhibition [2]: 2% | Activity (A549): 100% | inhibition [3]: 3% | inhibition [4]: -1% | inhibition [5]: 10% | inhibition [6]: 9% | inhibition [7]: -8% | inhibition [8]: -1% | inhibition [9]: 5% | inhibition [10]: 10% | inhibition [11]: 1% | inhibition [12]: 4% | inhibition [13]: 24% | inhibition [14]: 2% | IC50 (MDA-MB-468): 25 nM | inhibition (mTORC2 (Homo sapiens) [15]): Active | IC50 (A498 [16]): 100 nM | inhibition [17]: 2% | Activity (MDA-MB-361 [18]): Active | IC50 (MDA-MB-361 [19]): 24 nM | IC50 (A498 [20]): 2500 nM | inhibition [21]: 1% | inhibition [22]: 19% | inhibition (mTORC2 (Homo sapiens) [23]): Active | inhibition [24]: 3%
